Experimental data as given in patent publication US10800792B2, “Inhibitors of Bruton's tyrosine kinase and method of their use” (JANSSEN PHARMACEUTICA NV, priority 2015, dated 2020).

target: unphosphorylated-BTK kinase domain (UP-BTK), GST-tagged human BTK (389-659aa) (Homo sapiens (Human), UniProt Q06187); test: BTK kinase Lanthascreen binding assay; settings: Lanthascreen tracer competition, 60 minutes incubation; pIC50 = negative log of the IC50 in molar
How it was run: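 Values are pIC50, i.e. negative log of IC50 in molar, derived from concentration–response fitting. Each compound competes with a fluorescently labelled tracer for the unphosphorylated kinase domain.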

Chain of unphosphorylated-BTK kinase domain (UP-BTK), GST-tagged human BTK (389-659aa) (Q06187 389-659): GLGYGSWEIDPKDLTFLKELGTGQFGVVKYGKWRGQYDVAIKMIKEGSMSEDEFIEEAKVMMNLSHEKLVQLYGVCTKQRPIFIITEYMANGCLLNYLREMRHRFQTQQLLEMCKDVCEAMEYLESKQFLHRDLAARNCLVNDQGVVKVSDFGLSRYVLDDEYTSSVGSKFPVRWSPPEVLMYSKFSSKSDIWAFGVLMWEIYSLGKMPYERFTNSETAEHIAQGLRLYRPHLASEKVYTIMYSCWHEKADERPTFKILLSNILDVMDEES

Structure (SMILES) | BTK_I_binding pIC50
C=CC(=O)N1CCC[C@@H](NC(=O)c2sc3nccc4c3c2NC(=O)N4c2cnc(OC)nc2)C1 [Example 619, (R)—N-(1-Acryloylpiperidin-3-yl)-5-(2-methoxypyrimidin-5-yl)-4-oxo-4,5-dihydro-3H-1-thia-3,5,8-triazaacenaphthylene-2-carboxamide] | <6
C=CC(=O)N1CCC[C@@H](NC(=O)c2sc3nccc4c3c2NC(=O)N4c2ccnc(-c3ccccn3)c2)C1 [Example 709, (R)-5-([2,2′-Bipyridin]-4-yl)-N-(1-acryloylpiperidin-3-yl)-4-oxo-4,5-dihydro-3H-1-thia-3,5,8-triazaacenaphthylene-2-carboxamide] | 6.7
Cc1cc(Oc2ccccc2)ccc1N1C(=O)Nc2c(C(=O)N[C@@H]3CCCN(C(=O)/C(C#N)=C/C(C)(C)C)C3)sc3nccc1c23 (single isomer, unassigned) [Example 866, (R,E)-N-(1-(2-Cyano-4,4-dimethylpent-2-enoyl)piperidin-3-yl)-5-(*S)-(2-methyl-4-phenoxyphenyl)-4-oxo-4,5-dihydro-3H-1-thia-3,5,8-triazaacenaphthylene-2-carboxamide] | 7.3
C=CC(=O)N1CCC(Nc2sc3nccc4c3c2NC(=O)N4c2ccc(Oc3ccccc3)cc2C)CC1 [Example 606, 2-((1-Acryloylpiperidin-4-yl)amino)-5-(2-methyl-4-phenoxyphenyl)-3H-1-thia-3,5,8-triazaacenaphthylen-4(5H)-one] | 6.2
C=CC(=O)N1CCC[C@@H](NC(=O)c2sc3nccc4c3c2NC(=O)N4c2ccc(OCCOC(C)C)cc2C)C1 [Example 696, (R)—N-(1-Acryloylpiperidin-3-yl)-5-(4-(2-isopropoxyethoxy)-2-methylphenyl)-4-oxo-4,5-dihydro-3H-1-thia-3,5,8-triazaacenaphthylene-2-carboxamide] | 6.9
CC(=O)N1CCC[C@@H]1/C=C(\C#N)C(=O)N1CCC[C@@H](NC(=O)c2sc3nccc4c3c2NC(=O)N4c2ccc(Oc3ccccc3)cc2C)C1 [Example 683, N—((R)-1-((E)-3-((R)-1-Acetylpyrrolidin-2-yl)-2-cyanoacryloyl)piperidin-3-.l)-5-(2-methyl-4-phenoxyphenyl)-4-oxo-4,5-dihydro-3H-1-thia-3,5,8-triazaacenaphthylene-2-carboxamide] | 7.7
C=CC(=O)N1CCC[C@@H](NC(=O)c2sc3nccc4c3c2NC(=O)N4c2ccc(OC3CCCC3)cc2C)C1 [Example 693, (R)—N-(1-Acryloylpiperidin-3-yl)-5-(4-(cyclopentyloxy)-2-methylphenyl)-4-oxo-4,5-dihydro-3H-1-thia-3,5,8-triazaacenaphthylene-2-carboxamide] | 7.9

same assay, conditions: Lanthascreen tracer competition, 60 minutes incubation; pIC50 = negative log of the IC50 in molar; read-out: BTK_I_binding pIC50 (converted)

Structure (SMILES) | IC50 [nM]
Cc1cc(Oc2ccccc2)ccc1N1C(=O)Nc2c(C(=O)N[C@@H]3CCCN(C(=O)[C@@H]4CCCN4)C3)sc3nccc1c23 [Example 893, 5-(2-Methyl-4-phenoxyphenyl)-4-oxo-N—((R)-1-((S)-pyrrolidine-2-carbonyl)piperidin-3-yl)-4,5-dihydro-3H-1-thia-3,5,8-triazaacenaphthylene-2-carboxamide] | 100

same assay, conditions: pIC50 = negative log of the IC50 in molar; 60 minutes incubation, 50 nM Tracer 236

Structure (SMILES) | BTK_I_binding pIC50
CCC(=O)N1CCC[C@@H](NC(=O)c2sc3nccc4c3c2NC(=O)N4c2ccc(Oc3ccccc3)cc2C)C1 (single isomer, unassigned) [Example 184, (R)-5-(*S)-(2-Methyl-4-phenoxyphenyl)-4-oxo-N-(1-propionylpiperidin-3-yl)-4,5-dihydro-3H-1-thia-3,5,8-triazaacenaphthylene-2-carboxamide] | 7.4
Cc1cc(Oc2ccccc2)ccc1N1C(=O)Nc2c(C(=O)N[C@@H]3CCCN(C(=O)CO)C3)sc3nccc1c23 [Example 124, (R)—N-(1-(2-Hydroxyacetyl)piperidin-3-yl)-5-(2-methyl-4-phenoxyphenyl)-4-oxo-4,5-dihydro-3H-1-thia-3,5,8-triazaacenaphthylene-2-carboxamide] | 7.4
Cc1cc(Oc2ccccc2)ccc1N1C(=O)Nc2c(C(=O)NC[C@@H]3CCCN3)sc3nccc1c23 [Example 269, (S)-5-(2-Methyl-4-phenoxyphenyl)-4-oxo-N-(pyrrolidin-2-ylmethyl)-4,5-dihydro-3H-1-thia-3,5,8-triazaacenaphthylene-2-carboxamide] | 6.3

same assay, conditions: pIC50 = negative log of the IC50 in molar; 60 minutes incubation, 50 nM Tracer 236; read-out: BTK_I_binding pIC50 (converted)

Structure (SMILES) | IC50 [nM]
COc1ccc(N2C(=O)Nc3c(C(=O)N[C@@H]4CCCN(C(=O)/C(C#N)=[13CH]/C5CC5)C4)sc4nccc2c34)c(C)c1 [Example 177, ^13C—(R,E)-N-(1-(2-Cyano-3-cyclopropylacryloyl)piperidin-3-yl)-5-(4-methoxy-2-methylphenyl)-4-oxo-4,5-dihydro-3H-1-thia-3,5,8-triazaacenaphthylene-2-carboxamide] | 39.8

same assay, conditions: unphosphorylated-BTK kinase domain, 50 nM Tracer 236, 60 minutes; pIC50 = negative log of the IC50 in molar

Structure (SMILES) | BTK_I_binding pIC50
Cc1cc(Oc2ccccc2)ccc1N1C(=O)Nc2c(C(=O)N[C@@H]3CCCN(C(=O)[C@@H](C)CO)C3)sc3nccc1c23 [Example 547, N—((R)-1-((S)-3-Hydroxy-2-methylpropanol)piperidin-3-yl)-5-(2-methyl-4-phenoxyphenyl)-4-oxo-4,5-dihydro-3H-1-thia-3,5,8-triazaacenaphthylene-2-carboxamide] | 7.4
Cc1cc(Oc2ccccc2)ccc1N1C(=O)Nc2c(C(=O)N[C@@H]3CCN(C(=O)CN)C3)sc3nccc1c23 [Example 392, (R)—N-(1-(2-Aminoacetyl)pyrrolidin-3-yl)-5-(2-methyl-4-phenoxyphenyl)-4-oxo-4,5-dihydro-3H-1-thia-3,5,8-triazaacenaphthylene-2-carboxamide] | 7.4
Cc1cc(N2C(=O)Nc3c(C(=O)N[C@@H]4CCCNC4)sc4nccc2c34)ccc1Oc1ccccc1 [Example 583, (R)-5-(3-Methyl-4-phenoxyphenyl)-4-oxo-N-(piperidin-3-yl)-4,5-dihydro-3H-1-thia-3,5,8-triazaacenaphthylene-2-carboxamide] | 6.7
Cc1cc(Oc2ccccc2)ccc1N1C(=O)Nc2c(C(=O)N[C@@H]3CCN(C(=O)CCS(C)(=O)=O)C3)sc3nccc1c23 (single isomer, unassigned) [Example 494, (R)-5-(*S)-(2-Methyl-4-phenoxyphenyl)-N-(1-(3-(methylsulfonyl)propanoyl)pyrrolidin-3-yl)-4-oxo-4,5-dihydro-3H-1-thia-3,5,8-triazaacenaphthylene-2-carboxamide] | 8.0
Cc1cc(Oc2ccccc2)c(F)cc1N1C(=O)Nc2c(C(=O)N[C@H]3CCCOC3)sc3nccc1c23 [Example 308, (S)-5-(5-Fluoro-2-methyl-4-phenoxyphenyl)-4-oxo-N-(tetrahydro-2H-pyran-3-yl)-4,5-dihydro-3H-1-thia-3,5,8-triazaacenaphthylene-2-carboxamide] | 6.0
Cc1cc(Oc2ccccc2)ccc1N1C(=O)Nc2c(C(=O)N[C@@H]3CCCN(C(=O)C(Cl)=CC4CC4)C3)sc3nccc1c23 (mixture of isomers) [Example 402, (R,EZ)—N-(1-(2-Chloro-3-cyclopropylacryloyl)piperidin-3-yl)-5-(2-methyl-4-phenoxyphenyl)-4-oxo-4,5-dihydro-3H-1-thia-3,5,8-triazaacenaphthylene-2-carboxamide] | 6.5
CNC/C=C/C(=O)N1CC[C@@H](NC(=O)c2sc3nccc4c3c2NC(=O)N4c2ccc(Oc3ccccc3)cc2C)C1 (single isomer, unassigned) [Example 492, (R,E)-5-(*S)-(2-Methyl-4-phenoxyphenyl)-N-(1-(4-(methylamino)but-2-enoyl)pyrrolidin-3-yl)-4-oxo-4,5-dihydro-3H-1-thia-3,5,8-triazaacenaphthylene-2-carboxamide] | 8.0
Cc1cc(Oc2ccccc2)ccc1N1C(=O)Nc2c(C(=O)N[C@@H]3CCCN(C(=O)CN4CCOCC4)C3)sc3nccc1c23 [Example 394, (R)-5-(2-Methyl-4-phenoxyphenyl)-N-(1-(2-morpholinoacetyl)piperidin-3-yl)-4-oxo-4,5-dihydro-3H-1-thia-3,5,8-triazaacenaphthylene-2-carboxamide] | 6.8
C=CC(=O)N1CC[C@@H](NC(=O)c2sc3nccc4c3c2NC(=O)N4c2ccccc2F)C1 [Example 301, (R)—N-(1-Acryloylpyrrolidin-3-yl)-5-(2-fluorophenyl)-4-oxo-4,5-dihydro-3H-1-thia-3,5,8-triazaacenaphthylene-2-carboxamide] | 6.0

same assay, conditions: unphosphorylated-BTK kinase domain, 60 minutes incubation, 50 nM Tracer 236; pIC50 = negative log of the IC50 in molar

Structure (SMILES) | BTK_I_binding pIC50
Cc1cc(Oc2ccccc2)ccc1N1C(=O)Nc2c(C(=O)N[C@H]3CCCN(C)C3)sc3nccc1c23 [Example 930, (S)-5-(2-methyl-4-phenoxyphenyl)-N-(1-methylpiperidin-3-yl)-4-oxo-4,5-dihydro-3H-1-thia-3,5,8-triazaacenaphthylene-2-carboxamide] | 6.0
CN1CC[C@@H](NC(=O)c2sc3nccc4c3c2NC(=O)N4c2ccc(Oc3ccccc3)cc2)C1 [Example 910, (R)—N-(1-Methylpyrrolidin-3-yl)-4-oxo-5-(4-phenoxyphenyl)-4,5-dihydro-3H-1-thia-3,5,8-triazaacenaphthylene-2-carboxamide] | 6.7
CC(=O)N1CCC[C@@H](NC(=O)c2sc3nccc4c3c2NC(=O)N4c2ccc(OC(C)C)cc2C)C1 [Example 936, (R)—N-(1-Acetylpiperidin-3-yl)-5-(4-isopropoxy-2-methylphenyl)-4-oxo-4,5-dihydro-3H-1-thia-3,5,8-triazaacenaphthylene-2-carboxamide] | <6
